Measured values taken from patent US20240246941A1, “SUBSTITUTED 4-(3-AMINOPROP-1-YL)AMINOQUINOLINE ANALOGS AS MODULATORS OF MELANOMA-ASSOCIATED ANTIGEN 11 UBIQUITIN LIGASE” (ST. JUDE CHILDREN'S RESEARCH HOSPITAL, INC., priority 2020, published 2024).

biological target: MAGE-A11:PCF11 (Homo sapiens (Human), UniProt P43364); experiment: TR-FRET single point screening at 15 μM; format: binding; design: unit not given here; settings: single point TR-FRET screening at 15 μM against MAGE-A11:PCF11
Summary of the method: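 Competition TR-FRET: compounds at final 15 μM mixed with 200 nM FAM-PCF11_4, 5 nM GST-MAGEA11 and 5 nM Tb-anti-GST in Tris pH 7.5/MgCl2/BSA/DTT buffer, room temperature, 90 min. Emission ratio 520/490 nm (340 nm excitation) expressed as % inhibition relative to positive and negative controls.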

Chain of MAGE-A11:PCF11 (P43364 218-429): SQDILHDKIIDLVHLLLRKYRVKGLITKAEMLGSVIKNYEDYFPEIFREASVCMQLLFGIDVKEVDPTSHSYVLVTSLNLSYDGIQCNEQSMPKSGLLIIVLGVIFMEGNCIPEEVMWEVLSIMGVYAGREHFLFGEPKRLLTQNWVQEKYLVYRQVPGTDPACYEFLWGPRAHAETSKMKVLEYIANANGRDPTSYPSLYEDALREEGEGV

| Compound | TR-FRET signal |
| --- | --- |
| Cc1ccc(S(=O)(=O)c2cnc3ccccc3c2N2CCN(c3ccccc3)CC2)cc1 [SJ000117047] | −6.567 |
| CCCN(CCCNc1c2ccc(Cl)cc2nc2ccc(OC)cc12)Cc1cn(C(C)=O)c2ccccc12 [SJ000522736] | −192.4 |
| Fc1cccc(CN(CCCCNc2ccnc3cc(Cl)ccc23)Cc2ccccc2)c1 [SJ000361199] | 28.34 |
| FC(F)(F)Oc1ccc(CN(CCCCNc2ccnc3cc(Cl)ccc23)Cc2ccccc2)cc1 [SJ000520451] | 39.87 |
| CCOc1ccc2ncc(S(=O)(=O)c3ccc(OC)cc3)c(N3CCN(CC)CC3)c2c1 [SJ000083971] | −6.389 |
| CCCN(CCCNc1c2ccc(Cl)cc2nc2ccc(OC)cc12)Cc1cn(C)c2ccccc12 [SJ000522964] | −162.2 |
| COc1ccc2nc3cc(Cl)ccc3c(NCCCNCc3nccn3C)c2c1 [SJ000521006] | −279.9 |
| Clc1ccc2c(NC3CCN(Cc4ccc(Br)o4)CC3)ccnc2c1 [SJ000357512] | −4.381 |
| COc1ccc2ncc(S(=O)(=O)c3ccccc3)c(N3CCN(C)CC3)c2c1 [SJ000083947] | −2.094 |
| Clc1ccc2c(NCCCCN(Cc3ccccc3)Cc3cccc4ccccc34)ccnc2c1 [SJ000361204] | 26.49 |
| Clc1ccc2c(NCCCCN(Cc3ccccc3)Cc3ccc4ccccc4c3)ccnc2c1 [SJ000361205] | 24.64 |
| CN(C)c1ccc(CN(CCCCNc2ccnc3cc(Cl)ccc23)Cc2ccccc2)cc1 [SJ000522727] | 21.52 |
| COc1ccc2nc3cc(Cl)ccc3c(NCCCNCc3ccccc3F)c2c1 [SJ000523034] | −353.8 |
| COc1ccc2nc3cc(Cl)ccc3c(NCCCNCc3ccc(Cl)c([N+](=O)[O-])c3)c2c1 [SJ000523036] | −95.38 |
| Cc1ccc2ncc(S(=O)(=O)c3ccccc3)c(N3CCN(c4ccccc4)CC3)c2c1 [SJ000083973] | −29.7 |
| CCc1nc2ccccc2c(NC(=O)CN2CCCCC2)c1C [SJ000111682] | 1.593 |
| COc1ccc(N2CCN(c3c(S(=O)(=O)c4ccc(C)cc4)cnc4ccc(Cl)cc34)CC2)cc1 [SJ000117072] | −5.838 |
| Cc1ccc2ncc(S(=O)(=O)c3ccccc3)c(N3CCN(C)CC3)c2c1 [SJ000083945] | −8.419 |

| Compound | TR-FRET signal |
| --- | --- |
| COC(=O)CCCCCN(CCCCNc1ccnc2cc(Cl)ccc12)Cc1ccccc1 [SJ000520432] | 23.58 |
| COc1cccc(CN2CCC(Nc3ccnc4cc(Cl)ccc34)CC2)c1 [SJ000523107] | 3.149 |
| CCCN(CCCNc1c2ccc(Cl)cc2nc2ccc(OC)cc12)Cc1cnn(C)c1 [SJ000522980] | −276.6 |
| CCCN(CCCNc1c2ccc(Cl)cc2nc2ccc(OC)cc12)Cc1ccoc1 [SJ000520937] | −394.6 |
| CCCN(CCCNc1c2ccc(Cl)cc2nc2ccc(OC)cc12)CCCc1ccccc1 [SJ000520958] | −267.2 |
| COc1ccc2ncc(S(=O)(=O)c3ccc(C)cc3)c(N3CCN(Cc4ccccc4)CC3)c2c1 [SJ000117085] | −82.22 |
| CCc1ccc2ncc(S(=O)(=O)c3ccc(OC)cc3)c(N3CCN(c4ccc(F)cc4)CC3)c2c1 [SJ000117064] | −9.084 |
| CCCN(CCCNc1c2ccc(Cl)cc2nc2ccc(OC)cc12)CC(C)CC (centres unmarked) [SJ000520959] | −264.8 |
| CCCCN(CCCC)CC(=O)Nc1c2c(nc3ccccc13)N(C)CC2 [SJ000331523] | 2.503 |
| Fc1ccccc1CN1CCC(Nc2ccnc3cc(Cl)ccc23)CC1 [SJ000523091] | −0.9977 |
| CCOc1ccc2ncc(C(=O)c3ccc(OC)cc3)c(N3CCN(CC)CC3)c2c1 [SJ000247243] | −9.084 |
| CCCN(CCCNc1c2ccc(Cl)cc2nc2ccc(OC)cc12)Cc1ccsc1 [SJ000520922] | −258 |
| CCN1CCN(c2c(S(=O)(=O)c3ccc(C)cc3)cnc3cc(OC)c(OC)cc23)CC1 [SJ000083965] | 7.146 |
| Cc1ccc(C)c(CN(CCCCNc2ccnc3cc(Cl)ccc23)Cc2ccccc2)c1 [SJ000361209] | 32.65 |
| CCOc1ccc(C(=O)c2cnc3ccc(C)cc3c2N2CCN(CC)CC2)cc1 [SJ000247339] | −10.81 |
| COc1ccc2nc3cc(Cl)ccc3c(NCCCNCc3ccco3)c2c1 [SJ000523032] | −165.3 |
| CCN(CC)CC(=O)Nc1c2c(nc3ccccc13)CCCC2 [SJ000019523] | 2.741 |

same assay, conditions: single point TR-FRET screening of quinoline compounds against MAGE-A11:PCF11; 15 μM

| Compound | TR-FRET signal |
| --- | --- |
| Cn1cc(CNCCCNc2ccnc3cc(Cl)ccc23)c2ccccc21 [SJ000521020] | 18.47 |
| c1ccc(Oc2ccc3c(NCCCNCc4ccco4)ccnc3c2)cc1 [SJ000311206] | 14.59 |
| CCCN(CCCNc1ccnc2cc(C(F)(F)F)ccc12)Cc1ccccc1C(F)(F)F [SJ000361259] | 4.988 |
| CCCN(CCCNc1ccnc2cc(Cl)ccc12)Cc1ccc(F)cc1 [SJ000522759] | 20.79 |
| COC(=O)CCCCCN(CCCNc1ccnc2cc(Cl)ccc12)Cc1ccccc1 [SJ000520429] | 17.14 |
| CCOC(=O)c1cnc2ccc(OC)cc2c1NCCCN1CCOCC1 [SJ000127046] | 2.945 |
| Cc1ccc(CNCCCNc2ccnc3cc(Cl)ccc23)o1 [SJ000311326] | 10.2 |
| CCOC(=O)c1cnc2ccc(F)cc2c1NCCCN1CCOCC1 [SJ000279864] | −0.3915 |
| Clc1ccc2c(NCCCNCc3ccoc3)ccnc2c1 [SJ000520913] | −11.15 |
| CCOC(=O)c1cnc2c(C)cccc2c1NCCCN1CCOCC1 [SJ000279636] | 3.353 |
| c1coc(CNCCCNc2ccnc3cc(C4CCCCC4)ccc23)c1 [SJ000311262] | 32.96 |
| Clc1ccc2c(NCCCN(Cc3ccccc3)Cc3ccc(Br)o3)ccnc2c1 [SJ000312671] | −1.797 |
| CCOC(=O)c1cnc2c(Cl)cccc2c1NCCCN1CCOCC1 [SJ000279431] | 4.102 |
| FC(F)(F)c1ccc2c(NCCCNCc3cc(Br)cs3)ccnc2c1 [SJ000521056] | 32.72 |
| COC(=O)CCCCCNCCCNc1ccnc2cc(C(F)(F)F)ccc12 [SJ000521044] | 19.59 |
| COc1ccc(CN(CCCNc2ccnc3cc(Cl)ccc23)Cc2ccccc2)cc1 [SJ000522720] | 11.78 |
| Clc1ccc2c(NCCCN(Cc3ccccc3)Cc3ccoc3)ccnc2c1 [SJ000361170] | 12.84 |
| CCOC(=O)c1cnc2c(CC)cccc2c1NCCCN1CCOCC1 [SJ000185196] | −4.499 |
| CCCN(CCCNc1ccnc2cc(Cl)ccc12)Cc1ccc[nH]1 [SJ000357445] | 10.34 |
| NC(=O)CC(Nc1c2ccccc2nc2ccccc12)C(=O)O (centres unmarked) [SJ000044383] | 20.1 |
| CCCN(CCCNc1ccnc2cc(C(F)(F)F)ccc12)Cc1cccc(C)c1 [SJ000523076] | 20.17 |
| FC(F)(F)c1ccc2c(NCCCNCc3nccs3)ccnc2c1 [SJ000521046] | 7.779 |
| Cc1ccsc1CNCCCNc1ccnc2cc(Cl)ccc12 [SJ000311189] | 6.554 |

| Compound | TR-FRET signal |
| --- | --- |
| CCCN(CCCNc1ccnc2cc(C(F)(F)F)ccc12)Cc1ccccc1C(=O)O [SJ000523073] | 16.86 |
| CN(C)c1cccc(Oc2ccc3c(NCCCNCc4ccco4)ccnc3c2)c1 [SJ000311230] | 63.42 |
| Cc1ccc(CN(CCCNc2ccnc3cc(Cl)ccc23)Cc2ccccc2)s1 [SJ000312673] | 4.629 |
| CCCN(CCCNc1ccnc2cc(C(F)(F)F)ccc12)Cc1c(F)cccc1OC [SJ000361262] | 29.23 |
| O=[N+]([O-])c1ccc(CN(CCCNc2ccnc3cc(Cl)ccc23)Cc2ccccc2)cc1 [SJ000361179] | 20.2 |
| CCOC(=O)c1ccc2ncc(C(=O)OCC)c(NCCCN3CCOCC3)c2c1 [SJ000176583] | 11.26 |
| CCCN(CCCNc1ccnc2cc(C(F)(F)F)ccc12)Cc1ccco1 [SJ000361265] | 24.11 |
| Fc1ccc(CN(CCCNc2ccnc3cc(Cl)ccc23)Cc2ccccc2)cc1F [SJ000361174] | 27.55 |
| CCCN(CCCNc1ccnc2cc(C(F)(F)F)ccc12)Cc1cccc(F)c1 [SJ000521008] | 27.85 |
| CCCN(CCCNc1ccnc2cc(Cl)ccc12)Cc1ccoc1 [SJ000357442] | 6.214 |
| CCCN(CCCNc1ccnc2cc(C(F)(F)F)ccc12)CC1CCOC1 (centres unmarked) [SJ000575190] | 1.787 |
| CCCN(CCCNc1ccnc2cc(C(F)(F)F)ccc12)Cc1ccc2ccccc2c1 [SJ000523075] | 11.39 |
| CCCN(CCCNc1ccnc2cc(Cl)ccc12)Cc1ccc(C)s1 [SJ000357433] | 16.51 |
| CCCN(CCCNc1ccnc2cc(Cl)ccc12)Cc1ccc2c(c1)OCO2 [SJ000522753] | 18.75 |
| CCCN(CCCNc1ccnc2cc(Cl)ccc12)Cc1cc(OC)ccc1F [SJ000522996] | 26.66 |
| CN(C)c1ccc(CN(CCCNc2ccnc3cc(Cl)ccc23)Cc2ccccc2)cc1 [SJ000522741] | 14.76 |
| CCCN(CCCNc1c2ccc(Cl)cc2nc2ccc(OC)cc12)Cc1cc(OC(F)(F)F)ccc1OC [SJ000522984] | −36.71 |
| CCCN(CCCNc1c2ccc(Cl)cc2nc2ccc(OC)cc12)Cc1nc2ccccc2s1 [SJ000522969] | −68.77 |
| CCCN(CCC)CCCNc1ccnc2cc(C(F)(F)F)ccc12 [SJ000361250] | 15.68 |
| CCCN(CCCNc1ccnc2cc(C(F)(F)F)ccc12)Cc1ccc(N(C)C)cc1 [SJ000523077] | 23.71 |
| Clc1ccc2c(NCCCN(Cc3ccccc3)Cc3csc4ccccc34)ccnc2c1 [SJ000520454] | 28.14 |
| FC(F)(F)c1ccc2c(NCCCNCc3cc4ccccc4o3)ccnc2c1 [SJ000521057] | 27.48 |
